Source: ChEMBL document CHEMBL1201862, “PubChem BioAssay data set” (2004)
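These data come from cells grown in 96-well plates and exposed to compound for 48 hours at five concentrations. GI50 marks 50% less growth.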 Active and inactive are the calls of the source. No stated cut-off is given here; in the data, active = GI50 up to about 1.1 µM and inactive = higher.

Key:
Experiment in all cases: growth of human tumour cells (NCI), 48 h
[1] = system: DMS-114
[2] = system: CAKI-1
[3] = system: A498
[4] = system: UACC-62
[5] = system: KM-20L2
[6] = system: RXF 393
[7] = system: CCRF-CEM
[8] = system: K562
[9] = system: LOX IMVI
[10] = system: NCI-H460
[11] = system: HOP-92
[12] = system: EKVX
[13] = system: SW-620
[14] = system: SN12C
[15] = system: HCT-116
[16] = system: 786-0
[17] = system: LXFL 529
[18] = system: Malme-3M
[19] = system: KM12
[20] = system: IGROV-1
[21] = system: RXF 631
[22] = system: DMS-273
[23] = system: SNB-19
[24] = system: SNB-75
[25] = system: UACC-257
[26] = system: SF-268
[27] = system: DLD-1
[28] = system: A549
[29] = system: SF-539
[30] = system: NCI-H23
[31] = system: MOLT-4
[32] = system: HL-60
[33] = system: U-251
[34] = system: SF-295
[35] = system: OVCAR-4
[36] = system: HT-29
[37] = system: M14
[38] = system: OVCAR-3
[39] = system: HCT-15
[40] = system: SK-OV-3
[41] = system: M19-MEL
[42] = system: NCI-H226
[43] = system: SNB-78
[44] = system: HOP-62
[45] = system: COLO 205
[46] = system: TK-10
[47] = system: SK-MEL-5
[48] = system: OVCAR-5
[49] = system: NCI-H522
[50] = system: RPMI-8226
[51] = system: UO-31
[52] = system: XF498
[53] = system: OVCAR-8
[54] = system: SK-MEL-2
[55] = system: HCC 2998
[56] = system: ACHN
[57] = system: SK-MEL-28

For `COc1ccc2cc3[n+](cc2c1OC)CCc1cc(O)c(O)cc1-3`, the GI50 [1] was > 100 µM (inactive), the GI50 [2] was > 100 µM (inactive) and the GI50 [3] was > 100 µM (inactive). For the same compound, the GI50 [4] was > 100 µM (inactive), the GI50 [5] was > 100 µM (inactive) and the GI50 [6] was > 100 µM (inactive). For the same compound, the GI50 [7] was > 100 µM (inactive), the GI50 [8] was > 100 µM (inactive) and the GI50 [9] was > 100 µM (inactive). The GI50 [10] was > 100 µM (inactive), the GI50 [11] was > 100 µM (inactive) and the GI50 [12] was > 100 µM (inactive). For the same compound, the GI50 [13] was > 100 µM (inactive), the GI50 [14] was > 100 µM (inactive) and the GI50 [15] was > 100 µM (inactive). For the same compound, the GI50 [16] was > 100 µM (inactive), the GI50 [17] was > 100 µM (inactive) and the GI50 [18] was > 100 µM (inactive). For the same compound, the GI50 [19] was > 100 µM (inactive), the GI50 [20] was > 100 µM (inactive) and the GI50 [21] was > 100 µM (inactive). For the same compound, the GI50 [22] was > 100 µM (inactive), the GI50 [23] was > 100 µM (inactive) and the GI50 [24] was > 100 µM (inactive). The GI50 [25] was > 100 µM (inactive), the GI50 [26] was > 100 µM (inactive) and the GI50 [27] was > 100 µM (inactive). For the same compound, the GI50 [28] was > 100 µM (inactive), the GI50 [29] was > 100 µM (inactive) and the GI50 [30] was > 100 µM (inactive). The GI50 [31] was > 100 µM (inactive), the GI50 [32] was > 100 µM (inactive) and the GI50 [33] was > 100 µM (inactive). For the same compound, the GI50 [34] was > 100 µM (inactive), the GI50 [35] was > 100 µM (inactive) and the GI50 [36] was > 100 µM (inactive). For the same compound, the GI50 [37] was > 100 µM (inactive), the GI50 [38] was > 100 µM (inactive) and the GI50 [39] was greater than 100 µM. The GI50 [40] was > 100 µM (inactive), the GI50 [41] was > 100 µM (inactive) and the GI50 [42] was > 100 µM (inactive). For the same compound, the GI50 [43] was > 100 µM (inactive), the GI50 [44] was > 100 µM (inactive) and the GI50 [45] was > 100 µM (inactive). For the same compound, the GI50 [46] was > 100 µM (inactive), the GI50 [47] was > 100 µM (inactive) and the GI50 [48] was > 100 µM (inactive). For the same compound, the GI50 [49] was > 100 µM (inactive), the GI50 [50] was > 100 µM (inactive) and the GI50 [51] was > 100 µM (inactive). The GI50 [52] was > 100 µM (inactive) and the GI50 [53] was > 100 µM (inactive).
`O=C(NCCCCCCNC(=O)OCCSCCn1cc(C(=O)NC(=O)OCc2ccccc2)c(=O)[nH]c1=O)OCCSCCn1cc(C(=O)NC(=O)OCc2ccccc2)c(=O)[nH]c1=O` was tested, and the GI50 [1] was > 100 µM (inactive), the GI50 [54] was > 100 µM (inactive) and the GI50 [2] was > 100 µM (inactive). For the same compound, the GI50 [3] was > 100 µM (inactive), the GI50 [4] was > 100 µM (inactive) and the GI50 [5] was > 100 µM (inactive). The GI50 [6] was 45.5 µM (inactive), the GI50 [55] was > 100 µM (inactive) and the GI50 [7] was > 100 µM (inactive). The GI50 [8] was > 100 µM (inactive), the GI50 [9] was > 100 µM (inactive) and the GI50 [10] was > 100 µM (inactive). For the same compound, the GI50 [11] was 32.1 µM (inactive), the GI50 [12] was > 100 µM (inactive) and the GI50 [13] was > 100 µM (inactive). The GI50 [14] was > 100 µM (inactive), the GI50 [16] was > 100 µM (inactive) and the GI50 [17] was > 100 µM (inactive). For the same compound, the GI50 [18] was > 100 µM (inactive), the GI50 [19] was > 100 µM (inactive) and the GI50 [20] was > 100 µM (inactive). The GI50 [21] was > 100 µM (inactive), the GI50 [22] was > 100 µM (inactive) and the GI50 [23] was > 100 µM (inactive). The GI50 [25] was > 100 µM (inactive), the GI50 [27] was > 100 µM (inactive) and the GI50 [28] was > 100 µM (inactive). The GI50 [30] was > 100 µM (inactive), the GI50 [56] was > 100 µM (inactive) and the GI50 [31] was > 100 µM (inactive). For the same compound, the GI50 [33] was > 100 µM (inactive), the GI50 [34] was > 100 µM (inactive) and the GI50 [35] was > 100 µM (inactive). For the same compound, the GI50 [36] was > 100 µM (inactive), the GI50 [37] was > 100 µM (inactive) and the GI50 [38] was > 100 µM (inactive). For the same compound, the GI50 [39] was greater than 100 µM, the GI50 [41] was > 100 µM (inactive) and the GI50 [42] was > 100 µM (inactive). For the same compound, the GI50 [43] was > 100 µM (inactive), the GI50 [44] was > 100 µM (inactive) and the GI50 [45] was > 100 µM (inactive). For the same compound, the GI50 [46] was > 100 µM (inactive), the GI50 [47] was > 100 µM (inactive) and the GI50 [48] was > 100 µM (inactive). The GI50 [49] was > 100 µM (inactive), the GI50 [50] was > 100 µM (inactive) and the GI50 [51] was 55.8 µM (inactive). The GI50 [52] was > 100 µM (inactive) and the GI50 [53] was > 100 µM (inactive).
With `COc1cc2c(cc1OC)C(C(CO)CO)N(CC(O)CCl)CC2` (configuration not stated) the GI50 [54] was > 100 µM (inactive), the GI50 [2] was > 100 µM (inactive) and the GI50 [3] was > 100 µM (inactive). For the same compound, the GI50 [4] was > 100 µM (inactive), the GI50 [5] was > 100 µM (inactive) and the GI50 [55] was > 100 µM (inactive). The GI50 [7] was > 100 µM (inactive), the GI50 [8] was > 100 µM (inactive) and the GI50 [9] was > 100 µM (inactive). For the same compound, the GI50 [10] was > 100 µM (inactive), the GI50 [11] was > 100 µM (inactive) and the GI50 [12] was > 100 µM (inactive). The GI50 [13] was > 100 µM (inactive), the GI50 [16] was > 100 µM (inactive) and the GI50 [17] was > 100 µM (inactive). For the same compound, the GI50 [18] was > 100 µM (inactive), the GI50 [19] was > 100 µM (inactive) and the GI50 [20] was > 100 µM (inactive). The GI50 [21] was > 100 µM (inactive), the GI50 [22] was > 100 µM (inactive) and the GI50 [23] was > 100 µM (inactive). The GI50 [24] was > 100 µM (inactive), the GI50 [25] was > 100 µM (inactive) and the GI50 [26] was > 100 µM (inactive). The GI50 [27] was > 100 µM (inactive), the GI50 [57] was > 100 µM (inactive) and the GI50 [28] was > 100 µM (inactive). For the same compound, the GI50 [29] was > 100 µM (inactive), the GI50 [30] was > 100 µM (inactive) and the GI50 [56] was > 100 µM (inactive). For the same compound, the GI50 [31] was > 100 µM (inactive), the GI50 [32] was > 100 µM (inactive) and the GI50 [33] was > 100 µM (inactive). For the same compound, the GI50 [34] was > 100 µM (inactive), the GI50 [35] was > 100 µM (inactive) and the GI50 [36] was > 100 µM (inactive). The GI50 [37] was > 100 µM (inactive), the GI50 [38] was > 100 µM (inactive) and the GI50 [39] was greater than 100 µM. The GI50 [40] was > 100 µM (inactive), the GI50 [41] was > 100 µM (inactive) and the GI50 [42] was > 100 µM (inactive). For the same compound, the GI50 [43] was > 100 µM (inactive), the GI50 [44] was > 100 µM (inactive) and the GI50 [45] was > 100 µM (inactive). For the same compound, the GI50 [46] was > 100 µM (inactive), the GI50 [47] was > 100 µM (inactive) and the GI50 [48] was > 100 µM (inactive). For the same compound, the GI50 [49] was > 100 µM (inactive), the GI50 [50] was > 100 µM (inactive) and the GI50 [51] was 86.5 µM (inactive). The GI50 [52] was > 100 µM (inactive) and the GI50 [53] was > 100 µM (inactive).
For `Cc1ccc(-n2nc(C(OC3OC(CO)C(O)C(O)C3O)C(O)CO)c3nc4cc(C)c(C)cc4nc32)cc1` (configuration not stated), the GI50 [1] was > 100 µM (inactive), the GI50 [3] was > 100 µM (inactive) and the GI50 [4] was > 100 µM (inactive). The GI50 [5] was > 100 µM (inactive), the GI50 [6] was 36.2 µM (inactive) and the GI50 [55] was > 100 µM (inactive). For the same compound, the GI50 [7] was > 100 µM (inactive), the GI50 [8] was > 100 µM (inactive) and the GI50 [9] was > 100 µM (inactive). For the same compound, the GI50 [10] was > 100 µM (inactive), the GI50 [12] was > 100 µM (inactive) and the GI50 [14] was > 100 µM (inactive). For the same compound, the GI50 [15] was > 100 µM (inactive), the GI50 [16] was > 100 µM (inactive) and the GI50 [17] was > 100 µM (inactive). For the same compound, the GI50 [18] was > 100 µM (inactive), the GI50 [19] was > 100 µM (inactive) and the GI50 [21] was > 100 µM (inactive). The GI50 [23] was > 100 µM (inactive), the GI50 [24] was 34 µM (inactive) and the GI50 [25] was > 100 µM (inactive). For the same compound, the GI50 [26] was > 100 µM (inactive), the GI50 [27] was > 100 µM (inactive) and the GI50 [57] was > 100 µM (inactive). For the same compound, the GI50 [29] was > 100 µM (inactive), the GI50 [30] was > 100 µM (inactive) and the GI50 [56] was > 100 µM (inactive). The GI50 [31] was > 100 µM (inactive), the GI50 [33] was > 100 µM (inactive) and the GI50 [34] was > 100 µM (inactive). For the same compound, the GI50 [35] was 99.1 µM (inactive), the GI50 [36] was > 100 µM (inactive) and the GI50 [37] was > 100 µM (inactive). The GI50 [38] was > 100 µM (inactive), the GI50 [39] was greater than 100 µM and the GI50 [40] was > 100 µM (inactive). For the same compound, the GI50 [41] was > 100 µM (inactive), the GI50 [43] was > 100 µM (inactive) and the GI50 [44] was > 100 µM (inactive). The GI50 [46] was > 100 µM (inactive), the GI50 [48] was > 100 µM (inactive) and the GI50 [49] was > 100 µM (inactive). For the same compound, the GI50 [50] was > 100 µM (inactive), the GI50 [51] was > 100 µM (inactive) and the GI50 [52] was > 100 µM (inactive). The GI50 [53] was > 100 µM (inactive).
